What all share (assay): growth of human tumour cells (NCI), 48 h
The subject of assay [1] is SK-MEL-5.
The test system of assay [2] is SK-MEL-2.
For assay [3], the system named is SK-OV-3.
For assay [4], the system named is CAKI-1.
For assay [5], the system named is CCRF-CEM.
For assay [6], the system named is MDA-MB-435.
For assay [7], the system named is ACHN.
For assay [8], the system named is M14.
The test system of assay [9] is KM12.
The test system of assay [10] is SR.
In assay [11] the test system is 786-0.
Assay [12] has as its system MOLT-4.
In assay [13] the test system is MCF7.
Assay [14] has as its system SN12C.
Assay [15] concerns OVCAR-3.
Assay [16] relates to SF-295.
In assay [17] the test system is NCI-H226.
Assay [18] concerns UACC-257.
Assay [19] relates to HCT-116.
Assay [20] deals with MDA-MB-231.

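Briefly, cells in 96-well plates were exposed to five compound concentrations for 48 h, and endpoints were estimated by linear interpolation. Here, GI50 denotes the concentration required for 50% inhibition of growth.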 Active and inactive are the calls of the source. No stated cut-off is given here; in the data, active = GI50 up to about 1.1 µM and inactive = higher.

`CCOC(=O)/C=C/C(Br)=C(Br)/C=C/C(=O)OCC`: the GI50 in assay [1] was 12.9 µM (inactive); in assay [2], 20.2 µM (inactive); in assay [3] it was 20.3 µM (inactive); in assay [4] it was 3.84 µM (inactive); in [5], 0.796 µM (active); in [6] it was 7.13 µM (inactive). In addition, the GI50 is 12.3 µM (inactive) in assay [7]; 13.3 µM (inactive) in assay [8]; 16.6 µM (inactive) in assay [9]; 7.8 µM (inactive) in assay [10]; 3.01 µM (inactive) in assay [11]; 1.83 µM (inactive) in [12]. The GI50 in assay [13] was 7.93 µM (inactive); in [14], 7.85 µM (inactive); in assay [15], 12.1 µM (inactive); in assay [16], 14.8 µM (inactive); in assay [17] it was 29.5 µM (inactive); in [18], 18.2 µM (inactive). Moreover, the GI50 in [19] was 2.77 µM (inactive); in assay [20] it was 16.3 µM (inactive).

For the compound `COc1ccc(C(CC(=O)C(C)(C)CN2CCCCC2)SCCS(=O)(=O)O)cc1` (stereo not given), the GI50 in [1] was 20.9 µM (inactive); in assay [2], > 100 µM (inactive); in assay [3], 60.7 µM (inactive); in assay [4] it was 34.9 µM (inactive); in assay [5], 17.1 µM (inactive); in [6] it was 18.3 µM (inactive). Besides, the GI50 is 33.2 µM (inactive) in assay [7]; 18.7 µM (inactive) in assay [8]; 30.4 µM (inactive) in assay [9]; 14.3 µM (inactive) in assay [10]; 18.3 µM (inactive) in assay [11]; 22.1 µM (inactive) in [12]. Moreover, the GI50 in assay [13] was 28.7 µM (inactive); in assay [14] it was 54.2 µM (inactive); in assay [15] it was 12.8 µM (inactive); in [16] it was 13.9 µM (inactive); in assay [17] it was 21.9 µM (inactive); in assay [18], 34.4 µM (inactive). Besides, the GI50 in assay [19] is 29 µM (inactive); in assay [20], 27.5 µM (inactive).

Consider `CCN(CC)CCNc1ccc2nc(C)n3c4ccc(OC)cc4c(=O)c1c23`, for which the GI50 in assay [1] is 5.57 µM (inactive); in [2], 12.4 µM (inactive); in assay [3] it was 5.48 µM (inactive); in [4], 1.86 µM (inactive); in assay [5], 0.126 µM (active); in [6] it was 11.2 µM (inactive). The GI50 in assay [7] is 0.367 µM (active); in assay [8], 10.5 µM (inactive); in assay [9], 1.8 µM (inactive); in assay [10], 0.165 µM (active); in assay [11], 0.558 µM (active); in assay [12], 0.0959 µM (active). Moreover, the GI50 in assay [13] was 0.354 µM (active); in [14] it was 0.546 µM (active); in assay [15], 3.14 µM (inactive); in assay [16], 0.641 µM (active); in [17] it was 0.316 µM (active); in assay [18] it was 8.75 µM (inactive). Further, the GI50 in [19] was 0.282 µM (active); in [20], 0.423 µM (active).

On to `CSc1ccc(C(=O)C(=O)c2ccc(SC)s2)s1`, for which the GI50 in assay [1] was > 10 µM (inactive); in assay [2] it was > 10 µM (inactive); in assay [3], > 10 µM (inactive); in assay [4], > 10 µM (inactive); in assay [5], 3.15 µM (inactive); in assay [6] it was 4.34 µM (inactive). Further, the GI50 was > 10 µM (inactive) in assay [7]; > 10 µM (inactive) in assay [8]; > 10 µM (inactive) in assay [9]; 3.92 µM (inactive) in [10]; 6.64 µM (inactive) in assay [11]; 2.51 µM (inactive) in [12]. Besides, the GI50 was 5.58 µM (inactive) in [13]; > 10 µM (inactive) in [14]; > 10 µM (inactive) in [15]; > 10 µM (inactive) in assay [16]; > 10 µM (inactive) in [17]; > 10 µM (inactive) in assay [18]. Further, the GI50 in assay [19] and in [20] was > 10 µM (inactive) throughout.

Take `O=C(CC(=O)Nc1ccccc1)NNC(Sc1ccccc1)c1cc(/N=N/c2ccc(Br)cc2)ccc1O` (stereo not given): the GI50 in [1] was 1.06 µM (active); in assay [2], > 10 µM (inactive); in assay [3], 4.21 µM (inactive); in assay [4], 4.82 µM (inactive); in assay [5] it was 0.417 µM (active); in assay [6] it was 4.28 µM (inactive). In addition, the GI50 in [7] is 2.47 µM (inactive); in assay [8], 0.973 µM (active); in assay [9] it was 4.07 µM (inactive); in assay [10], 0.353 µM (active); in assay [11], 0.802 µM (active); in [12], 0.0916 µM (active). For the same compound, the GI50 in [13] is 1.78 µM (inactive); in assay [14] it was 1.89 µM (inactive); in [15], 0.394 µM (active); in assay [16], 3.85 µM (inactive); in assay [17] it was 0.444 µM (active); in [18], 4.29 µM (inactive). Moreover, the figures for the GI50 in assay [19] and in assay [20] were 0.448 µM (active) and 2.24 µM (inactive), respectively.

Consider `CCOC(CN(C)C(=O)Nc1cccc2ccccc12)OCC`, for which the GI50 in assay [1], in [2], in [3], in assay [4], in assay [5] and in assay [6] was > 10 µM (inactive) throughout. Further, the GI50 in assay [7], in [8], in [9], in assay [10], in [11] and in assay [12] was > 10 µM (inactive) each time. In addition, the GI50 in assay [13], in assay [14], in assay [15], in [16], in assay [17] and in assay [18] was > 10 µM (inactive) throughout. For the same compound, the GI50 in assay [19] and in assay [20] was > 10 µM (inactive) throughout.

`O=C1c2ccccc2C(=O)c2c(NCCCNCCO)ccc(NCCCNCCO)c21`: the GI50 in assay [1] is 13.4 µM (inactive); in assay [2], 13.2 µM (inactive); in assay [3], 14.6 µM (inactive); in assay [4], 10 µM (inactive); in [5], 3.08 µM (inactive); in assay [6], 12.6 µM (inactive). In addition, the GI50 in [7] is 4.51 µM (inactive); in assay [8] it was 9.68 µM (inactive); in assay [9] it was 5.57 µM (inactive); in assay [10], 3.65 µM (inactive); in [11], 4.79 µM (inactive); in assay [12], 3 µM (inactive). Also, the GI50 in assay [13] was 2.88 µM (inactive); in assay [14], 4 µM (inactive); in assay [15], 5.71 µM (inactive); in [16], 7.33 µM (inactive); in assay [17], 1.61 µM (inactive); in assay [18], 15.2 µM (inactive). The GI50 in [19] was 4.33 µM (inactive); in assay [20], 11.6 µM (inactive).

For the origin of these results see ChEMBL document CHEMBL1201862, “PubChem BioAssay data set” (2004).
